In patent publication US5180735A, “Cyclohexanol derivatives, production and use thereof” (Takeda Chemical Industries, Ltd., priority 1989, dated 1993):

Legend:
M5076 cells = experiment: Antitumor test in mice inoculated subcutaneously with M5076 cells (tumor size, T/C); format: in vivo, C57BL/6 mice; settings: subcutaneous, 10 times in total, tumor size after 13 days; for T/C (%) (ratio of tumor size to control group) / response vs control in vivo at 20 mg/kg: 20 mg/kg; for response vs control in vivo at 30 mg/kg / response vs control in vivo at 20 mg/kg: Mus musculus, M5076, sc, 312 h, read-out: T/C (%) (ratio of tumor size to control group)
Procedure: C57BL/6 mice (a group consisting of 6 mice) were inoculated subcutaneously at the dorsolateral area with 2×10^6 M5076 cells, and then a test compound dissolved in a 5% gum arabic physiological saline solution was subcutaneously administered 10 times in total, i.e. 1st, 2nd, 4th, 5th, 6th, 7th, 8th, 9th, 11th and 12th day after the inoculation. After 13 days, the major axis (a) and the minor axis (b) of the tumor tissue were measured to determine the tumor size by the calculation formula of a×b^2 ×1/2. The ratio of the tumor size thus calculated to the tumor size of animals in the control group was shown by T/C (%).

[1] = system: angiogenesis due to bFGF (rat cornea); experiment: Angiogenesis inhibitory action by the rat cornea micropocket method; format: in vivo, male Sprague-Dawley rats; settings: sustained release pellet, 20 μg sample, next to bFGF pellet (250 ng) in cornea; observed after 10 days
Source text: Angiogenesis inhibitory action by the rat cornea micropocket method
Essentially the same method of Gimbrone et al. [J. National Cancer Institute 52:413-419 (1974)] was follows.
Specifically, adult male Sprague-Dawley rats (11 to 16 week old) were anesthetized with nembtal and locally anesthetized by instillation of xylocaine eyedrops onto the eyeball. The cornea was incised to a length of about 2 mm at about 2 mm inside from the corneal circumference by means of an injection needle, and a basic fibroblast growth factor (bFGF, bovine brain-derived, purified product, R & D Inc.) and a sustained release pellet containing the test sample were inserted side by side into the incision so that the bFGF pellet was located on the central side in the cornea. In the control group, the bFGF pellet and a sample-free pellet were inserted into the cornea. After 10 days, the cornea was observed under a stereoscopic microscope.
The sustained release pellets were prepared in the following manner. An ethylene-vinyl acetate copolymer (Takeda Chemical Industries, Ltd.) was dissolved in dichloromethane to a concentration of 8%. A 3 μl portion of the solution was air-dried on a glass dish, an aqueous solution of bFGF (250 ng) was then placed thereon and air-dried and, finally 3 μl of the above-mentioned ethylene-vinyl acetate copolymer solution was placed further thereon and air-dried to give a sandwich sheet. This sandwich sheet was made round into a bFGF pellet. The test sample pellets were prepared by dissolving each sample in ethanol to a concentration of 20 μg/2 μl, mixing the solution with 6 μl of an ethylene-vinyl acetate copolymer solution, air-drying the mixed solution on a glass dish and making the thus-obtained sheet round.
In the above Table 1, the number of rats subjected to the test was shown by denominator, and the number of rats whose […] due to bFGF was retarded or weakened by administration of the test sample was shown by numerator. In the judgment, +means an inhibition rate of 70% or more, and ±means that of less than 70% but exceeding 40%.

## 4-(N'-chloroacetylureido)-2-(1,2-epoxy-1,5-dimethyl-4-hexenyl)-1-(1,3-dihydrobenzo[c]thiophen-2-ylio)methyl-3-methoxycyclohexanol chloride [Example 100]
M5076 cells
  T/C (%) (ratio of tumor size to control group): 22%

## CO[C@@H]1[C@H](OC(=O)NC(=O)CCl)CC[C@](O)(C[S+](C)Cc2cccc(Br)c2)[C@H]1[C@@]1(C)O[C@@H]1CC=C(C)C (single isomer, unassigned) [Example 65A, 1-(3-bromobenzyl)methylsulfoniomethyl-4-(N-chloroacetylcarbamoyloxy)-2-(1,2-epoxy-1,5-dimethyl-4-hexenyl)-3-methoxycyclohexanol bromide]
M5076 cells
  T/C (%) (ratio of tumor size to control group): 9%

## CO[C@@H]1[C@H](OC(=O)NC(=O)CCl)CC[C@](O)(C[S+](C)Cc2cccc(Br)c2)[C@H]1[C@@]1(C)O[C@@H]1CC=C(C)C (single isomer, unassigned) [Example 65B, 1-(3-bromobenzyl)methylsulfoniomethyl-4-(N-chloroacetylcarbamoyloxy)-2-(1,2-epoxy-1,5-dimethyl-4-hexenyl)-3-methoxycyclohexanol bromide]
M5076 cells
  T/C (%) (ratio of tumor size to control group): 37%

## CO[C@@H]1[C@H](OC(=O)NC(=O)CCl)CC[C@](O)(CCl)[C@H]1[C@@]1(C)O[C@@H]1CC=C(C)C [Example 1c, 4-O-(Chloroacetylcarbamoyl)-2-(1,2-epoxy-1,5-dimethyl-4-hexenyl)-3-methoxy-1-chloromethyl-1,4-cyclohexanediol]
[1]
  Inhibitory Rate (rats whose angiogenesis due to bFGF was retarded or weakened / rats subjected to the test): 5/5
  Judgment (Angiogenesis Inhibitory Activity): + (an inhibition rate of 70% or more)
M5076 cells
  response vs control in vivo at 30 mg/kg: 20%

## C=CC(=O)NC(=O)O[C@@H]1CC[C@](O)(CCl)[C@@H]([C@@]2(C)O[C@@H]2CC=C(C)C)[C@@H]1OC [Example 2, 4-O-(Acryloylcarbamoyl)-2-(1,2-epoxy-1,5-dimethyl-4-hexenyl)-3-methoxy-1-chloromethyl-1,4-cyclohexanediol]
M5076 cells
  response vs control in vivo at 30 mg/kg: 20%

## CO[C@@H]1[C@H](OC(=O)NC(=O)C(C)CCl)CC[C@](O)(CCl)[C@H]1[C@@]1(C)O[C@@H]1CC=C(C)C (stereo partly drawn) [Example 4, 4-O-(3-Chloro-2-methyl-propionylcarbamoyl)-2-(1,2-epoxy-1,5-dimethyl-4-hexenyl)-3-methoxy-1-chloromethyl-1,4-cyclohexanediol]
[1]
  Inhibitory Rate (rats whose angiogenesis due to bFGF was retarded or weakened / rats subjected to the test): 3/5
  Judgment (Angiogenesis Inhibitory Activity): ± (that of less than 70% but exceeding 40%)

## CO[C@@H]1[C@H](O)CC[C@](O)(CSC)[C@H]1[C@@]1(C)O[C@@H]1CC=C(C)C [Example 10, 2-(1,2-Epoxy-1,5-dimethyl-4-hexenyl)-3-methoxy-1-methylthiomethyl-1,4-cyclohexanediol]
[1]
  Inhibitory Rate (rats whose angiogenesis due to bFGF was retarded or weakened / rats subjected to the test): 4/7
  Judgment (Angiogenesis Inhibitory Activity): ± (that of less than 70% but exceeding 40%)

## CO[C@@H]1[C@H](OC(=O)NC(=O)CCl)CC[C@](O)(C[S+](C)C)[C@H]1[C@@]1(C)O[C@@H]1CC=C(C)C [Example 13, 4-O-(Chloroacetylcarbamoyl)-2-(1,2-epoxy-1,5-dimethyl-4-hexenyl)-3-methoxy-1-dimethylsulfoniomethyl-1,4-cyclohexanediol iodide]
M5076 cells
  response vs control in vivo at 30 mg/kg: 36%

## CO[C@@H]1[C@H](OC(=O)NC(=O)CCl)CC[C@](O)(C[S+](C)Cc2ccccc2)[C@H]1[C@@]1(C)O[C@@H]1CC=C(C)C (stereo partly drawn) [Example 16, 4-O-(N-chloroacetylcarbamoyl)-2-(1,2-epoxy-1,5-dimethyl-4-hexenyl)-3-methoxy-1-benzylmethylsulfoniomethyl-1,4-cyclohexanediol bromide]
M5076 cells
  response vs control in vivo at 30 mg/kg: 20%

## C#CC[S+](C)C[C@@]1(O)CC[C@@H](OC(=O)NC(=O)CCl)[C@@H](OC)[C@@H]1[C@@]1(C)O[C@@H]1CC=C(C)C (stereo partly drawn) [Example 17, 4-O-(Chloroacetylcarbamoyl)-2-(1,2-epoxy-1,5-dimethyl-4-hexenyl)-3-methoxy-1-(2-propinyl)-methylsulfoniomethyl-1,4-cyclohexanediol bromide]
M5076 cells
  response vs control in vivo at 30 mg/kg: 21%

## CO[C@@H]1[C@H](O)CC[C@](O)(C[N+]2([O-])CCCC2)[C@H]1[C@@]1(C)O[C@@H]1CC=C(C)C [Example 48, 2-(1,2-Epoxy-1,5-dimethyl-4-hexenyl)-3-methoxy-1-(pyrrolidin-1-yl)methyl-1,4-cyclohexanediol N-oxide]
[1]
  Inhibitory Rate (rats whose angiogenesis due to bFGF was retarded or weakened / rats subjected to the test): 4/7
  Judgment (Angiogenesis Inhibitory Activity): ± (that of less than 70% but exceeding 40%)

## CO[C@@H]1[C@H](OC(=O)NC(=O)CCl)CC[C@](O)(C[S+](C)Cc2ccc(Br)cc2)[C@H]1[C@@]1(C)O[C@@H]1CC=C(C)C (stereo partly drawn) [Example 60, 1-(4-Bromobenzyl)methylsulfoniomethyl-4-(N-chloroacetylcarbamoyloxy)-2-(1,2-epoxy-1,5-dimethyl-4-hexenyl)-3-methoxycyclohexanol bromide]
M5076 cells
  response vs control in vivo at 20 mg/kg: 21%

## CO[C@@H]1[C@H](OC(=O)NC(=O)CCl)CC[C@](O)(C[S+](C)Cc2ccc(Cl)cc2)[C@H]1[C@@]1(C)O[C@@H]1CC=C(C)C (stereo partly drawn) [Example 61, 4-(N-Chloroacetylcarbamoyloxy)-1-(4-chlorobenzyl)methylsulfoniomethyl-2-(1,2-epoxy-1,5-dimethyl-4-hexenyl)-3-methoxycyclohexanol bromide]
M5076 cells
  response vs control in vivo at 20 mg/kg: 27%

## CO[C@@H]1[C@H](OC(=O)NC(=O)CCl)CC[C@](O)(C[S+](C)Cc2ccc(F)cc2)[C@H]1[C@@]1(C)O[C@@H]1CC=C(C)C (stereo partly drawn) [Example 62, 4-(N-Chloroacetylcarbamoyloxy)-2-(1,2-epoxy-1,5-dimethyl-4-hexenyl)-1-(4-fluorobenzyl)methylsulfoniomethyl-3-methoxycyclohexanol bromide]
M5076 cells
  response vs control in vivo at 20 mg/kg: 29%

## CO[C@@H]1[C@H](OC(=O)NC(=O)CCl)CC[C@](O)(C[S+](C)Cc2cccc(Br)c2)[C@H]1[C@@]1(C)O[C@@H]1CC=C(C)C (stereo partly drawn) [Example 64, 1-(3-Bromobenzyl)methylsulfoniomethyl-4-(N-chloroacetylcarbamoyloxy)-2-(1,2-epoxy-1,5-dimethyl-4-hexenyl)-3-methoxycyclohexanol bromide]
M5076 cells
  response vs control in vivo at 20 mg/kg: 24%

## CO[C@@H]1[C@H](OC(N)=O)CC[C@](O)(C[S+](C)C)[C@H]1[C@@]1(C)O[C@@H]1CC=C(C)C [Example 70, 4-Carbamoyloxy-2-(1,2-epoxy-1,5-dimethyl-4-hexenyl)-3-methoxy-1-dimethylsulfoniomethyl-cyclohexanol iodide]
[1]
  Inhibitory Rate (rats whose angiogenesis due to bFGF was retarded or weakened / rats subjected to the test): 5/6
  Judgment (Angiogenesis Inhibitory Activity): + (an inhibition rate of 70% or more)

## CO[C@@H]1[C@H](OC(=O)NC(=O)CCl)CC[C@](O)(C[S+](C)Cc2ccccc2)[C@H]1[C@@]1(C)O[C@@H]1CC=C(C)C (stereo partly drawn) [Example 76, 1-Benzylmethylsulfoniomethyl-4-chloroacetylcarbamoyloxy-2-(1,2-epoxy-1,5-dimethyl-4-hexenyl)-3-methoxycyclohexanol hydrogen L-tartrate]
M5076 cells
  response vs control in vivo at 20 mg/kg: 29%

## CO[C@@H]1[C@H](OC(=O)NC(=O)CCl)CC[C@](O)(C[S+]2Cc3ccccc3C2)[C@H]1[C@@]1(C)O[C@@H]1CC=C(C)C [Example 82, 4-(N-Chloroacetylcarbamoyloxy)-2-(1,2-epoxy-1,5-dimethyl-4-hexenyl)-1-(1,3-dihydrobenzo[c]thiophen-2-ylio)methyl-3-methoxycyclohexanol chloride]
M5076 cells
  response vs control in vivo at 20 mg/kg: 9%

## CO[C@@H]1[C@H](OC(=O)NC(=O)CSc2nc3ccccc3s2)CC[C@](O)(CCl)[C@H]1[C@@]1(C)O[C@@H]1CC=C(C)C [Example 91]
[1]
  Inhibitory Rate (rats whose angiogenesis due to bFGF was retarded or weakened / rats subjected to the test): 6/6
  Judgment (Angiogenesis Inhibitory Activity): + (an inhibition rate of 70% or more)

## CO[C@@H]1[C@H](OC(=O)NC(=O)CCl)CC[C@](O)(C[S+]2CC3CC=CCC3C2)[C@H]1[C@@]1(C)O[C@@H]1CC=C(C)C (stereo partly drawn) [Example 104, 4-(N-chloroacetylcarbamoyloxy)-2-(1,2-epoxy-1,5-dimethyl-4-hexenyl)-1-(1,3,3a,4,7,7ahexahydrobenzo[c]thiophen-2-ylio)methyl-3-methoxycyclohexanol chloride]
M5076 cells
  response vs control in vivo at 20 mg/kg: 16%
